Tests used:
miR-135b [1] = assay: miR-135b levels after antidepressant treatment, real time PCR; details: for miR-135b levels in the RN: acute or chronic administration, 20 mg/kg i.p.
mice [2] = assay: Forced swim test; assay type: in vivo
Method: The […] was performed as previously described [Krishnan V and Nestler E J, Nature (2008) 455: 894-902]. In short, the apparatus used was a plastic bucket, 18 cm of diameter, filled with 25° C. water to a depth of 15 cm. Each mouse was placed in the center of the bucket to initiate a 6 minutes video recorded test session. The duration of time spent immobile during the 2-6 minute of testing was automatically scored using Eto Vision XT (Noldus, Wageningen, Netherlands).

mice [3] = assay: Tail suspension test; assay type: in vivo
Method: The tail suspension test was performed in the TSE Tail Suspension Monitor (TSE Systems, Bad Homburg, Germany). Each mouse was taped by the tip of its tail, and suspended from the force sensor for 10 minutes. Time spent immobile and time spent struggling were calculated and recorded by the software based on pre-set thresholds.

miR-135a = miR-135a levels after antidepressant treatment, real time PCR; details: for miR-135a levels in the RN: acute or chronic administration, 20 mg/kg i.p.
miR-19a = miR-19a levels in PFC after Reboxetine; assay type: in vivo, mice
Method: (§1) Mice received i.p. injection of tricyclic-Imipramine, or SSRI-Fluoxetine, or NRI-Reboxetine (20 mg/kg in saline) or saline.
(§2) These animals will be also tested for anxiety like behavior, locomotor activity and memory performance. Furthermore, the levels of expression of miR-19a and miR-19b are examined in different regions of interest (E.G the hippocampus, amygdala and forebrain) following an acute and chronic systemic treatment with the Noradrenaline reuptake inhibitor Reboxetine in WT mice.

miR-19b = miR-19b levels in PFC after Reboxetine; assay type: in vivo, mice
Method: as §1, §2

Slc6a4 3′UTR = assay: Luciferase reporter assay, Slc6a4 3′UTR, HEK293T cells; assay type: cell-based, mouse; details: for repression of Slc6a4 3′UTR luciferase reporter: miR over-expressing vector vs empty vector, HEK293T; for repression with Slc6a4 3′UTR mutated in miR-135 seed match: mutated 3′UTR lacking miR-135 seed match
From the text: (§3) 3′UTR sequences of Slc6a4, Htr1a, MaoA and Tph2 were PCR amplified from mouse genomic DNA, or total brain cDNA. 3′UTR PCR fragments were ligated into pGEM-T easy vector (Promega) according to the manufacturer's guidelines, and further subcloned into a single NotI site at the 3′ end of luciferase in the Psicheck2 reporter plasmid (Promega). Mutated 3′ UTR sequences, lacking miR-135 seed sequences, were synthesized with primers overhangs across the seed match sequence. Cloning orientation was verified by diagnostic cuts and by sequencing.
(§4) HEK293T cells were grown on poly-L-lysine in 48-well format to a 70-85% confluence and transfected using Polyethyleneimine with the following plasmids: 5 ng of Psicheck2-3′UTR plasmid and 215 ng of over-expressing vector for a specific miRNA, or empty-miR-vec over-expression plasmids. 24 hours following transfection cells were lysed and luciferase reporters activity were assayed as previously described [Chen A. et al. Mol Endocrinol (2005) 19: 441-58]. Renilla luciferase values were normalized to control firefly luciferase levels (transcribed from the same vector but not affected by 3′UTR tested) and averaged across six well repetitions per condition.

Htr1a 3′UTR = assay: Luciferase reporter assay, Htr1a 3′UTR, HEK293T cells; assay type: cell-based, mouse; details: for seed matches through which Htr1a 3′UTR is repressed: Htr1a miR-135 seed matches mutated individually or both; for repression of Htr1a 3′UTR luciferase reporter: miR over-expressing vector vs empty vector, HEK293T
From the text: as §3, §4
3′UTR sequence of Htr1a was PCR amplified from mouse genomic DNA. 3′UTR PCR fragments were ligated into pGEM-T easy vector (Promega) according to the manufacturer's guidelines, and further subcloned into a single NotI site at the 3′ end of luciferase in the Psicheck2 reporter plasmid (Promega). Cloning orientation was verified by diagnostic cuts and by sequencing.
as §4, with “plasmids:” for “plasmids: 5 ng of”, “Psicheck2-3′UTR plasmid, pre-mmu-miR-182 over-expression in pEGFP” for “Psicheck2-3′UTR”, “plasmid” for “plasmid and 215 ng of over-expressing vector for a specific miRNA,”, “pEGFP plasmid alone (clontech).” for “empty-miR-vec over-expression plasmids.”

mice [4] = assay: Home cage locomotor activity; assay type: in vivo; details: lentiviral miR-135b over-expression in RN
Method: To control for the possibility of behavioral effects originating from differences in ambulatory movement, locomotor activity of mice was examined over a 48 hours period, which proceeded a few days of habituation. Mice were single housed in specialized home cages and locomotion was measured using the InfraMot system (TSE Systems, Bad Hamburg, Germany).

miR-135b [5] = assay: Lentiviral over-expression of miR-135b in RN, real time PCR; details: lentiviruses over-expressing miR-135b injected into RN, vs control lentiviruses
Dscam 3′UTR = assay: Luciferase assay, Dscam 3′UTR, N2a cells; assay type: cell-based
From the text: (§5) Using a luciferase assay, eleven predicted target genes of miR182, chosen after extensive bioinformatics, were examined (FIG. 27A).

miR-182 = miR-182 over-expression lentiviruses in N2a cell line, real time PCR; details: N2a cells infected with over-expression lentiviruses vs control
Tsnax 3′UTR = assay: Luciferase assay, Tsnax 3′UTR, N2a cells; assay type: cell-based
Method: as §5
(§6) Similar verification for Dscam and Htr1a with mutated 3′UTR are performed.

L1cam 3′UTR = assay: Luciferase assay, L1cam 3′UTR, N2a cells; assay type: cell-based
Method: as §5, §6

[6] = acute and chronic administration
[7] = chronic administration (18 days)

## CNCCC(Oc1ccc(C(F)(F)F)cc1)c1ccccc1 (stereo not drawn) [Fluoxetine]
miR-135b [1]; acute administration
  miR135b levels in the AMY: upregulated
  miR135b levels in the PFC: upregulated
miR-135b [1]; [6]
  circulating miR-135b levels in plasma: no effect
miR-135b [1]
  miR-135b levels in the RN: unaltered
miR-135b [1]; chronic administration
  miR135b levels in the AMY: not by chronic administration
  miR135b levels in the PFC: decreased
Mice [2]; SSRI treatment, miR135KD and control KD mice
  immobility time, forced swim test: reduced
Mice [3]; SSRI treatment vs basal, miR135KD and control KD mice
  immobility time, tail suspension test: decrease in immobility time
miR-135a; acute administration
  miR135a levels in the AMY: upregulated
  miR135a levels in the PFC: not significantly altered
miR-135a; [6]
  circulating miR-135a levels in plasma: robust decrease
miR-135a
  miR-135a levels in the RN: robust increase
miR-135a; chronic administration
  miR135a levels in the AMY: not by chronic administration
  miR135a levels in the PFC: decreased

## CN(C)CCCN1c2ccccc2CCc2ccccc21 [Imipramine]
miR-135b [1]
  miR-135b levels in the RN: increased
miR-135a
  miR-135a levels in the RN: increased

## CCOc1ccccc1OC(c1ccccc1)C1CNCCO1 (stereo not drawn) [Reboxetine]
miR-135b [1]; acute administration
  miR135b levels in the AMY: upregulated
  miR135b levels in the PFC: upregulated
miR-135b [1]
  miR-135b levels in the RN: unaltered
miR-135b [1]; chronic administration
  miR135b levels in the AMY: not by chronic administration
miR-19a; acute administration (once)
  miR-19a levels in the PFC: down regulated
miR-19a; [7]
  miR-19a levels in the PFC: upregulated
miR-19b; acute administration (once)
  miR-19b levels in the PFC: down regulated
miR-19b; [7]
  miR-19b levels in the PFC: upregulated
miR-135a; acute administration
  miR135a levels in the AMY: upregulated
  miR135a levels in the PFC: not significantly altered
miR-135a
  miR-135a levels in the RN: not
miR-135a; chronic administration
  miR135a levels in the AMY: not by chronic administration

## miR-135a: microRNA over-expressed from a vector; SEQ ID NO: 24 (AGUGUAUCCUUAUUUUUCGGUAU; listed as Mus musculus)
Slc6a4 3′UTR
  repression of Slc6a4 3′UTR luciferase reporter: approximately 30%
  repression with Slc6a4 3′UTR mutated in miR-135 seed match: fully blocked
Htr1a 3′UTR
  seed matches through which Htr1a 3′UTR is repressed: via the distal and not the proximal seed match
  repression of Htr1a 3′UTR luciferase reporter: approximately 30%

## miR-135b: microRNA over-expressed from plasmid or neuron-specific lentivirus (pre-miR-135b); SEQ ID NO: 26 (AGUGUAUCCUUACUUUUCGGUAU; listed as Mus musculus)
Mice [4]
  home cage locomotion: without any observed change
Mice [2]; lentiviral miR-135b over-expression in RN, after chronic social defeat
  immobility time, forced swim test: reduced immobility time
Slc6a4 3′UTR
  repression of Slc6a4 3′UTR luciferase reporter: approximately 50%
  repression with Slc6a4 3′UTR mutated in miR-135 seed match: fully blocked
Htr1a 3′UTR
  seed matches through which Htr1a 3′UTR is repressed: via both predicted sites
  repression of Htr1a 3′UTR luciferase reporter: approximately 50%
miR-135b [5]
  induction of miR-135b levels in RN: 10 fold
Mice [3]; lentiviral miR-135b over-expression in RN, after chronic social defeat, last 5 min
  immobility time, tail suspension test: reduced immobility time

B1: miR-182: pre-mmu-miR-182 over-expression in pEGFP plasmid or lentiviruses (nucleic acid, listed as Homo sapiens)
chain 1: GAGCUGCUUGCCUCCCCCCGUUUUUGGCAAUGGUAGAACUCACACUGGUGAGGUAACAGGAUCCGGUGGUUCUAGACUUGCCAACUAUGGGGCGAGGACUCAGCCGGCAC
chain 2: UUUGGCAAUGGUAGAACUCACACCG
Dscam 3′UTR
  effect on Dscam 3′UTR luciferase: represoric effect
Htr1a 3′UTR
  repression of Htr1a 3′UTR luciferase reporter: strong repression
miR-182
  miR-182 levels in infected cells: increased miR-182 levels
Tsnax 3′UTR; N2a cells
  effect on Tsnax 3′UTR luciferase: represoric effect
Tsnax 3′UTR; mutated 3′UTR
  effect on Tsnax 3′UTR with mutated seed match: abolished
L1cam 3′UTR; N2a cells
  effect on L1cam 3′UTR luciferase: represoric effect
L1cam 3′UTR; mutated 3′UTR
  effect on L1cam 3′UTR with mutated seed match: abolished

B2: miR-335: microRNA over-expressed from a vector (nucleic acid, listed as Homo sapiens)
chain 1: UGUUUUGAGCGGGGGUCAAGAGCAAUAACGAAAAAUGUUUGUCAUAAACCGUUUUUCAUUAUUGCUCCUGACCUCCUCUCAUUUGCUAUAUUCA
chain 2: UCAAGAGCAAUAACGAAAAAUGU
Htr1a 3′UTR
  repression of Htr1a 3′UTR luciferase reporter: significant repression

Reference: patent US12016876B2, “Micro-RNAs and compositions comprising same for the treatment and diagnosis of serotonin-, adrenalin-, noradrenalin-, glutamate-, and corticotropin-releasing hormone- associated medical conditions” (Yeda Research and Development Co. Ltd., priority 2011, dated 2024)
